# Source: ChEMBL document CHEMBL1201862, “PubChem BioAssay data set” (2004)
#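 1) Cells in 96-well plates. 2) Compound, 48 h, 5 concentrations. 3) Linear interpolation between surrounding doses. 4) Unreached endpoint = highest concentration. GI50 = concentration required for 50% inhibition of growth.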 The source made the active and inactive calls. Cut-off read from the data, not from the text of the source: active = GI50 up to about 1.1 µM and inactive = higher.
# Tests used:
# Assay in all cases: NCI tumour cell line growth inhibition, 48 h
# [1] = test system: RPMI-8226
# [2] = test system: UO-31
# [3] = test system: MCF7
# [4] = test system: TK-10
# [5] = test system: SNB-75
# [6] = test system: IGROV-1
# [7] = test system: 786-0
# [8] = test system: SR
# [9] = test system: HT-29
# [10] = test system: LOX IMVI
# [11] = test system: MDA-MB-435
# [12] = test system: SK-OV-3
# [13] = test system: OVCAR-5
# [14] = test system: DU-145
# [15] = test system: CAKI-1
# [16] = test system: A549
# [17] = test system: MDA-MB-231
# [18] = test system: MDA-N
# [19] = test system: OVCAR-3
# [20] = test system: SW-620
# [21] = test system: HOP-92
# [22] = test system: NCI-H23
# [23] = test system: SF-268
# [24] = test system: OVCAR-8
# [25] = test system: M14
# [26] = test system: HL-60
# [27] = test system: NCI/ADR-RES
# [28] = test system: HCT-116
# [29] = test system: NCI-H460
# [30] = test system: SK-MEL-28
# [31] = test system: Malme-3M
# [32] = test system: SK-MEL-5
# [33] = test system: PC-3
# [34] = test system: UACC-257
# [35] = test system: COLO 205
# [36] = test system: HOP-62
# [37] = test system: MOLT-4
# [38] = test system: KM12
# [39] = test system: ACHN
# [40] = test system: K562
# [41] = test system: NCI-H522
# [42] = test system: SF-539
# [43] = test system: A498
# [44] = test system: EKVX
# [45] = test system: Hs-578T
# [46] = test system: SNB-19
# [47] = test system: OVCAR-4
# [48] = test system: RXF 393
# [49] = test system: SN12C
# [50] = test system: CCRF-CEM
# [51] = test system: SF-295
# [52] = test system: NCI-H226
# [53] = test system: BT-549
# [54] = test system: HCC 2998
# [55] = test system: HCT-15
# [56] = test system: UACC-62
smiles,measurement,setting,value
COc1ccc(CNc2nc3cc(N)cc(N)c3nc2-c2ccccc2)cc1,GI50,[1],4.13 µM (inactive)
CSc1ncnc2c1ncn2CCC#N,GI50,[2],> 100 µM (inactive)
same,GI50,[3],> 100 µM (inactive)
same,GI50,[4],> 100 µM (inactive)
same,GI50,[5],> 100 µM (inactive)
same,GI50,[6],> 100 µM (inactive)
same,GI50,[7],> 100 µM (inactive)
same,GI50,[8],> 100 µM (inactive)
same,GI50,[9],> 100 µM (inactive)
same,GI50,[10],> 100 µM (inactive)
same,GI50,[11],> 100 µM (inactive)
same,GI50,[12],> 100 µM (inactive)
same,GI50,[13],> 100 µM (inactive)
same,GI50,[14],> 100 µM (inactive)
same,GI50,[15],> 100 µM (inactive)
same,GI50,[16],> 100 µM (inactive)
same,GI50,[17],> 100 µM (inactive)
same,GI50,[18],> 100 µM (inactive)
same,GI50,[19],> 100 µM (inactive)
same,GI50,[20],> 100 µM (inactive)
same,GI50,[1],> 100 µM (inactive)
same,GI50,[21],> 100 µM (inactive)
same,GI50,[22],> 100 µM (inactive)
same,GI50,[23],> 100 µM (inactive)
same,GI50,[24],> 100 µM (inactive)
same,GI50,[25],> 100 µM (inactive)
same,GI50,[26],> 100 µM (inactive)
same,GI50,[27],> 100 µM (inactive)
same,GI50,[28],> 100 µM (inactive)
same,GI50,[29],> 100 µM (inactive)
same,GI50,[30],> 100 µM (inactive)
same,GI50,[31],> 100 µM (inactive)
same,GI50,[32],> 100 µM (inactive)
same,GI50,[33],> 100 µM (inactive)
same,GI50,[34],> 100 µM (inactive)
same,GI50,[35],> 100 µM (inactive)
same,GI50,[36],> 100 µM (inactive)
same,GI50,[37],> 100 µM (inactive)
same,GI50,[38],> 100 µM (inactive)
same,GI50,[39],> 100 µM (inactive)
same,GI50,[40],> 100 µM (inactive)
same,GI50,[41],> 100 µM (inactive)
same,GI50,[42],> 100 µM (inactive)
same,GI50,[43],> 100 µM (inactive)
same,GI50,[44],> 100 µM (inactive)
same,GI50,[45],> 100 µM (inactive)
same,GI50,[46],> 100 µM (inactive)
same,GI50,[47],> 100 µM (inactive)
same,GI50,[48],> 100 µM (inactive)
same,GI50,[49],> 100 µM (inactive)
same,GI50,[50],> 100 µM (inactive)
same,GI50,[51],> 100 µM (inactive)
same,GI50,[52],> 100 µM (inactive)
C(=C\c1ccco1)/c1cccc(/C=C/c2ccco2)n1,GI50,[2],> 50 µM (inactive)
same,GI50,[3],0.283 µM (active)
same,GI50,[4],> 50 µM (inactive)
same,GI50,[5],13.2 µM (inactive)
same,GI50,[6],> 50 µM (inactive)
same,GI50,[7],> 50 µM (inactive)
same,GI50,[8],33.6 µM (inactive)
same,GI50,[53],> 50 µM (inactive)
same,GI50,[9],> 50 µM (inactive)
same,GI50,[10],> 50 µM (inactive)
same,GI50,[11],> 50 µM (inactive)
same,GI50,[12],> 50 µM (inactive)
same,GI50,[13],> 50 µM (inactive)
same,GI50,[14],> 50 µM (inactive)
same,GI50,[15],> 50 µM (inactive)
same,GI50,[16],> 50 µM (inactive)
same,GI50,[18],> 50 µM (inactive)
same,GI50,[19],> 50 µM (inactive)
same,GI50,[20],> 50 µM (inactive)
same,GI50,[1],> 50 µM (inactive)
same,GI50,[21],> 50 µM (inactive)
same,GI50,[22],> 50 µM (inactive)
same,GI50,[23],> 50 µM (inactive)
same,GI50,[24],> 50 µM (inactive)
same,GI50,[25],> 50 µM (inactive)
same,GI50,[26],> 50 µM (inactive)
same,GI50,[54],> 50 µM (inactive)
same,GI50,[27],> 50 µM (inactive)
same,GI50,[28],> 50 µM (inactive)
same,GI50,[29],> 50 µM (inactive)
same,GI50,[30],> 50 µM (inactive)
same,GI50,[31],> 50 µM (inactive)
same,GI50,[32],> 50 µM (inactive)
same,GI50,[34],> 50 µM (inactive)
same,GI50,[35],> 50 µM (inactive)
same,GI50,[55],> 50 µM
same,GI50,[36],> 50 µM (inactive)
same,GI50,[37],> 50 µM (inactive)
same,GI50,[38],> 50 µM (inactive)
same,GI50,[39],> 50 µM (inactive)
same,GI50,[40],> 50 µM (inactive)
same,GI50,[41],> 50 µM (inactive)
same,GI50,[42],> 50 µM (inactive)
same,GI50,[43],> 50 µM (inactive)
same,GI50,[44],> 50 µM (inactive)
same,GI50,[45],> 50 µM (inactive)
same,GI50,[56],> 50 µM (inactive)
same,GI50,[46],> 50 µM (inactive)
same,GI50,[47],> 50 µM (inactive)
same,GI50,[48],> 50 µM (inactive)
same,GI50,[49],> 50 µM (inactive)
same,GI50,[50],> 50 µM (inactive)
same,GI50,[51],> 50 µM (inactive)
same,GI50,[52],> 50 µM (inactive)
